Measurements: US20230122219A1, “IRAK DEGRADERS AND USES THEREOF” (Kymera Therapeutics, Inc., priority 2020, published 2023)

Experiments:
[1] = target: T1, IRAK4 (Homo sapiens, UniProt Q9NWZ3); experiment: IRAK4 MSD Degradation in OCI-LY10; assay type: cell-based; design: endogenous in cells; host or cells: OCI-LY10; settings: OCI-LY10 cells, 4 hrs, Meso Scale Discovery
T1 sequence (Q9NWZ3 1-460): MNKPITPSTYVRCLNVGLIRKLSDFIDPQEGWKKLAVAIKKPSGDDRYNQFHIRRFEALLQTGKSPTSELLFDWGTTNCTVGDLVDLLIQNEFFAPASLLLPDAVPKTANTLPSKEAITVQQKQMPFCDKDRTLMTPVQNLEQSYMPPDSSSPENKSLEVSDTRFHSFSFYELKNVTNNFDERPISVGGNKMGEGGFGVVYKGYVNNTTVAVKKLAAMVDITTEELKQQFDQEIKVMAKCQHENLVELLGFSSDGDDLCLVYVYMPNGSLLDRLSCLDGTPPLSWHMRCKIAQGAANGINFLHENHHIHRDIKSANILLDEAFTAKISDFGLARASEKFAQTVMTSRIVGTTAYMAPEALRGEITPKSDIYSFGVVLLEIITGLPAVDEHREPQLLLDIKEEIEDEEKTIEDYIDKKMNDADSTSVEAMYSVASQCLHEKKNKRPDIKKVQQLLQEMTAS
Method: Degradation of IRAK4 in OCI-LY10 was quantitatively measured using Meso Scale Discovery technology. OCI-LY10 cells were seeded in 96-well plates (Corning 3799) with a density of 300,000 cells per well in 100 μL fresh media. Compounds were then added to the assay plates with a final top concentration of 1 to 10 μM in a 1:3 dilution series with total of 8 doses. The assay plates were then incubated for 4 to 24 hours at 37° C. under 5% CO2. The assay plates were then centrifuged for 5 minutes and the cell pellets were treated with 100 μL/well RIPA lysis buffer (Boston BioProducts BP-115D) with proteinase inhibitors. To prepare MSD assay plates (Meso Scale Discovery Catalog number L15XA-3), the plates were coated with […] capture antibody (mouse Anti-IRAK4 antibody [2H9], ab119942) in PBS, at 40 μL/well. […] The assay plates were then incubated at room temperature for 1 hour, washed 3 times with 150 μL/well TBST buffer, and 150 μL/well MSD reading buffer (Meso Scale Discovery catalog number R92TC-2) was added. The plates were then analyzed by a MSD reader (Meso Scale Discovery, Model Quick Plex SQ 120). The data was then analyzed by software Prism 7.0 from GraphPad and the dose-depended IRAK4 degradation were fit using a three-parameter logistic equation to calculate DC50. […]

[2] = target: T1, IRAK4; experiment: Human Whole Blood IRAK4 Degradation (whole blood monocyte, flow cytometry); assay type: cell-based; design: Whole blood was collected in heparinized tubes and plated on the same day as draw (day 0); from tissue; host or cells: human whole blood (CD14-positive monocytes gated by flow cytometry); settings: human whole blood monocytes, read-out: IRAK4 degradation in whole blood: Average external Abs DC50
Method: Whole blood was collected in heparinized tubes and plated on the same day as draw (day 0). Whole blood was aliquoted into deep well plates. Compound plates were prepared and a 10 point, 5-fold dilution was performed with a final DMSO concentration of 0.1%. Compound was added to whole blood deep well plate, sealed and incubated at 37° C., 5% C02 for 20 hours (for 4 hour treatment, compounds were prepared and added the following day). Following the treatment incubation period (day 1), BD lyse fix (BD#558049) was added to the whole blood plate, placed on plate shaker for 30 seconds and incubated for 10 mins at room temperature. Whole blood was then spun down and washed two times with PBS/0.5% BSA, aspirated to pellet and placed into −80° C. freezer until further processing for flow. On the flow run day, whole blood plates were thawed and samples were transferred to PCR plates. The pre-perm staining cocktail (CD3 Ax488/CD8 BUV805/CD14 BUV395/CD16/56 BV711/CD19 BV785) was added to samples and incubated for 30 minutes at room temperature. Samples were washed two times and permeabilized with Methanol for 10 minutes at 4° C. […] Twenty hour dose curves were calculated using a 4 parameter logistic regression curve fit, no constraints (Top doses were removed if hook effects were observed and the bottom was constrained to 0). […]

DC50 [1]: < 50 nM | DC50 [2]: < 50 nM
SMILES: CN(C[C@H]1CC[C@H](n2cc(NC(=O)c3cnn4cccnc34)c(C(F)F)n2)CC1)C1CCN(c2cccc3c2n(C)c(=O)n3C2CCC(=O)NC2=O)CC1 (some centres unmarked) [I-1]
